This is an account of results in patent US20250221996A1, “HETEROCYCLIC COMPOUNDS, COMPOSITIONS THEREOF, AND METHODS OF TREATMENT THEREWITH” (BeiGene, Ltd., priority 2022, published 2025).

Bounds are passed on as bounds.

This test concerns pERK1/2(THR202/TYR204) level in AsPC-1 cells. Put plainly: pERK assay (HTRF) in AsPC-1 cell line. It is filed as cell-based. The following applies: 2 h compound treatment. The method, then:
AsPC-1 cell line was used in this study. Cells were maintained in RPMI-1640 supplemented with 10% fetal bovine serum (Thermo Fisher), 50 units/mL penicillin and streptomycin (Thermo Fisher) and kept at 37° C. in a humidified atmosphere of 5% CO2 in air. Cells were reinstated from frozen stocks that were laid down within 30 passages from the original cells purchased. 30000 cells per well were seeded into a 96-well plate and incubated overnight. Cells were treated with a 10-point dilution series. The final compound concentration is from 0 to 10 μM. After 2 h compound treatment, cells were lysed, and the pERK1/2(THR202/TYR204) level in the cell lysates was detected by HTRF kit (Cisbio). In brief, a total of 16 μL of cell lysate from each well of a 96-well plate was transferred to a 384-well white assay plate. Lysate from each well was incubated with 2 μL of Eu3+-cryptate (donor) labeled anti-phospho-ERK1/2 and 2 μL of D2 (acceptor) labeled anti-phospho-ERK1/2 antibodies (Cisbio) overnight in dark at room temperature. When donor and acceptor are in close proximity, excitation of the donor with laser triggers a Fluorescence Resonance Energy Transfer (FRET) towards the acceptor, which in turn fluoresces at 655 nm wavelength. FRET signals were measured using a PHERAstar FSX reader (BMG Labtech). IC50 determination was performed by fitting the curve of percent inhibition versus the log of the inhibitor concentration using Dotmatics.

Where the note is “Homo sapiens, ASPC1, 2 h”, `COCC12CC(COc3nc(N4CC5CCC(C4)N5)c4cc(C(F)(F)F)c(-c5ccc(F)c6sc(N)c(C#N)c56)c(F)c4n3)(CO1)C2` (single isomer, unassigned) [Example 11-Isomer 2, 4-(4-(3,8-diazabicyclo[3.2.1]octan-3-yl)-8-fluoro-2-((1-(methoxymethyl)-2-oxabicyclo[2.1.1]hexan-4-yl)methoxy)-6-(trifluoromethyl)quinazolin-7-yl)-2-amino-7-fluorobenzo[b]thiophene-3-carbonitrile] gave an IC50 of 37 nM.

Take `N#Cc1c(N)sc2c(F)ccc(-c3c(C(F)(F)F)cc4c(N5CC6CCC(C5)N6)nc(OCC5(C(F)F)CCOC5)nc4c3F)c12` (single isomer, unassigned) [Example 14-Isomer 3, 4-(4-(3,8-diazabicyclo[3.2.1]octan-3-yl)-2-((3-(difluoromethyl)tetrahydrofuran-3-yl)methoxy)-8-fluoro-6-(trifluoromethyl)quinazolin-7-yl)-2-amino-7-fluorobenzo[b]thiophene-3-carbonitrile]: for the setting “Homo sapiens, ASPC1, 2 h”, half-maximal inhibition (IC50) was put at 172 nM. `N#Cc1c(N)sc2c(F)ccc(-c3c(C(F)(F)F)cc4c(N5CC6CCC(C5)N6)nc(OCC5(C(F)F)CCOC5)nc4c3F)c12` (single isomer, unassigned) [Example 14-Isomer 4, 4-(4-(3,8-diazabicyclo[3.2.1]octan-3-yl)-2-((3-(difluoromethyl)tetrahydrofuran-3-yl)methoxy)-8-fluoro-6-(trifluoromethyl)quinazolin-7-yl)-2-amino-7-fluorobenzo[b]thiophene-3-carbonitrile] came in with an IC50 of 138 nM.

`N#Cc1c(N)sc2c(F)ccc(-c3c(C(F)(F)F)cc4c(N5CC6CCC(C5)N6)nc(OCC5(C#N)CCOCC5)nc4c3F)c12` (single isomer, unassigned) [Example 22-Isomer 1, 4-(((7-(2-amino-3-cyano-7-fluorobenzo[b]thiophen-4-yl)-4-(3,8-diazabicyclo[3.2.1]octan-3-yl)-8-fluoro-6-(trifluoromethyl)quinazolin-2-yl)oxy)methyl)tetrahydro-2H-pyran-4-carbonitrile]: the IC50 was > 10000 nM. In turn, `N#Cc1c(N)sc2c(F)ccc(-c3c(C(F)(F)F)cc4c(N5CC6CCC(C5)N6)nc(OCC5(C#N)CCOCC5)nc4c3F)c12` (single isomer, unassigned) [Example 22-Isomer 2, 4-(((7-(2-amino-3-cyano-7-fluorobenzo[b]thiophen-4-yl)-4-(3,8-diazabicyclo[3.2.1]octan-3-yl)-8-fluoro-6-(trifluoromethyl)quinazolin-2-yl)oxy)methyl)tetrahydro-2H-pyran-4-carbonitrile] returned a half-maximal inhibitory concentration (IC50) of 72 nM. The molecule `N#Cc1c(N)sc2c(F)ccc(-c3c(C(F)(F)F)cc4c(N5CC6CCC(C5)N6)nc(OCC5(C(F)F)COC5)nc4c3F)c12` (single isomer, unassigned) [Example 48-Isomer 2, 4-(4-(3,8-diazabicyclo[3.2.1]octan-3-yl)-2-((3-(difluoromethyl)oxetan-3-yl)methoxy)-8-fluoro-6-(trifluoromethyl)quinazolin-7-yl)-2-amino-7-fluoro benzo[b]thiophene-3-carbonitrile] registered a concentration for half-maximal inhibition (IC50) (Homo sapiens, ASPC1, 2 h) of 65 nM. On the same count and under the same terms, to `COC1(COc2nc(N3CC4CCC(C3)N4)c3cc(C(F)(F)F)c(-c4ccc(F)c5sc(N)c(C#N)c45)c(F)c3n2)CCOC1` (centres unmarked) [Example 3-Mixture 1, 4-(4-(3,8-diazabicyclo[3.2.1]octan-3-yl)-8-fluoro-2-((3-methoxytetra hydrofuran-3-yl)methoxy)-6-(trifluoromethyl)quinazolin-7-yl)-2-amino-7-fluoro benzo[b]thiophene-3-carbonitrile] belongs 1730 nM; to `N#Cc1c(N)sc2c(F)ccc(-c3c(C(F)(F)F)cc4c(N5CC6CCC(C5)N6)nc(OCC5(O)CCOC5)nc4c3F)c12` (centres unmarked) [Example 6, 4-(4-(3,8-diazabicyclo[3.2.1]octan-3-yl)-8-fluoro-2-((3-hydroxytetrahydrofuran-3-yl)methoxy)-6-(trifluoromethyl)quinazolin-7-yl)-2-amino-7-fluoro benzo[b]thiophene-3-carbonitrile], 187 nM. The molecule `N#Cc1c(N)sc2c(F)ccc(-c3c(C(F)(F)F)cc4c(N5CC6CCC(C5)N6)nc(OCC56CCC(C5)OC6)nc4c3F)c12` (centres unmarked) [Example 7, 4-(2-((2-oxabicyclo[2.2.1]heptan-4-yl)methoxy)-4-(3,8-diazabicyclo[3.2.1]octan-3-yl)-8-fluoro-6-(trifluoromethyl)quinazolin-7-yl)-2-amino-7-fluorobenzo[b]thiophene-3-carbonitrile] registered an IC50 (Homo sapiens, ASPC1, 2 h) of 112 nM. Still for that read-out and setting: to `COC(=O)N1CC(C)(COc2nc(N3CC4CCC(C3)N4)c3cc(C(F)(F)F)c(-c4ccc(F)c5sc(N)c(C#N)c45)c(F)c3n2)C1` [Example 8, methyl 3-(((7-(2-amino-3-cyano-7-fluorobenzo[h]thiophen-4-yl)-4-(3,8-diazabicyclo[3.2.1]octan-3-yl)-8-fluoro-6-(trifluoromethyl)quinazolin-2-yl)oxy)methyl)-3-methylazetidine-1-carboxylate] belongs 159 nM; to `CCC12CC(COc3nc(N4CC5CCC(C4)N5)c4cc(C(F)(F)F)c(-c5ccc(F)c6sc(N)c(C#N)c56)c(F)c4n3)(CO1)C2` [Example 12, 4-(4-(3,8-diazabicyclo[3.2.1]octan-3-yl)-2-((1-ethyl-2-oxabicyclo [2.1.1]hexan-4-yl)methoxy)-8-fluoro-6-(trifluoromethyl)quinazolin-7-yl)-2-amino-7-fluorobenzo[h]thiophene-3-carbonitrile], 1730 nM; to `CC(=O)N1CC(C)(COc2nc(N3CC4CCC(C3)N4)c3cc(C(F)(F)F)c(-c4ccc(F)c5sc(N)c(C#N)c45)c(F)c3n2)C1` [Example 13, 4-(2-((1-acetyl-3-methylazetidin-3-yl)methoxy)-4-(3,8-diazabicyclo[3.2.1]octan-3-yl)-8-fluoro-6-(trifluoromethyl)quinazolin-7-yl)-2-amino-7-fluorobenzo[b]thiophene-3-carbonitrile], 146 nM. For `CC12CC(COc3nc(N4CC5CCC(C4)N5)c4ccc(-c5ccc(F)c6sc(N)c(C#N)c56)c(F)c4n3)(CO1)C2` [Example 15, 4-(4-(3,8-diazabicyclo[3.2.1]octan-3-yl)-8-fluoro-2-((1-methyl-2-oxabicyclo[2.1.1]hexan-4-yl)methoxy)quinazolin-7-yl)-2-amino-7-fluorobenzo[b] thiophene-3-carbonitrile], for the setting “Homo sapiens, ASPC1, 2 h”, the half-inhibitory concentration (IC50) was 7140 nM.

Molecule `CC12CC(COc3nc(N4C5CNCC4COC5)c4cc(C(F)(F)F)c(-c5ccc(F)c6sc(N)c(C#N)c56)c(F)c4n3)(CO1)C2` [Example 16, 4-(4-(3-oxa-7,9-diazabicyclo[3.3.1]nonan-9-yl)-8-fluoro-2-((1-methyl-2-oxabicyclo[2.1.1]hexan-4-yl)methoxy)-6-(trifluoromethyl)quinazolin-7-yl)-2-amino-7-fluorobenzo[b]thiophene-3-carbonitrile] gave an IC50 (Homo sapiens, ASPC1, 2 h) of 143 nM. Same read-out and setting: for `CC1(CC#N)CN(c2nc(N3CC4CCC(C3)N4)c3cc(C(F)(F)F)c(-c4ccc(F)c5sc(N)c(C#N)c45)c(F)c3n2)C1` [Example 17] the value was 561 nM; for `CC1(COc2nc(N3CC4CCC(C3)N4)c3cc(C(F)(F)F)c(-c4ccc(F)c5sc(N)c(C#N)c45)c(F)c3n2)COC1` [Example 18, 4-(4 (3,8-diazabicyclo[3.2.1]octan-3-yl)-8-fluoro-2-((3-methyloxetan-3-yl)methoxy)-6-(trifluoromethyl)quinazolin-7-yl)-2-amino-7-fluorobenzo [b]thiophene-3-carbonitrile], 146 nM; for `N#Cc1c(N)sc2c(F)ccc(-c3c(C(F)(F)F)cc4c(N5CC6CCC(C5)N6)nc(OCC5(O)CCOCC5)nc4c3F)c12` [Example 19, 4-(4-(3,8-diazabicyclo[3.2.1]octan-3-yl)-8-fluoro-2-((4-hydroxytetrahydro-2H-pyran-4-yl)methoxy)-6-(trifluoromethyl)quinazolin-7-yl)-2-amino-7-fluorobenzo[b]thiophene-3-carbonitrile], 326 nM.

The molecule `COC(=O)N1CC(COc2nc(N3CC4CCC(C3)N4)c3cc(C(F)(F)F)c(-c4ccc(F)c5sc(N)c(C#N)c45)c(F)c3n2)(OC)C1` [Example 20, methyl 3-(((7-(2-amino-3-cyano-7-fluorobenzo[b]thiophen-4-yl)-4-(3,8-diazabicyclo[3.2.1]octan-3-yl)-8-fluoro-6-(trifluoromethyl)quinazolin-2-yl)oxy)methyl)-3-methoxyazetidine-1-carboxylate] came in with an IC50 (Homo sapiens, ASPC1, 2 h) of 188 nM. For `N#Cc1c(N)sc2c(F)ccc(-c3c(C(F)(F)F)cc4c(N5CC6CCC(C5)N6)nc(OCC56COC(CO)(C5)C6)nc4c3F)c12` [Example 21, 4-(4-(3,8-diazabicyclo[3.2.1]octan-3-yl)-8-fluoro-2-((1-(hydroxymethyl)-2-oxabicyclo[2.1.1]hexan-4-yl)methoxy)-6-(trifluoromethyl)quinazolin-7-yl)-2-amino-7-fluorobenzo[b]thiophene-3-carbonitrile], inhibition (Homo sapiens, ASPC1, 2 h) was half-maximal at 760 nM (IC50). As to `N#Cc1c(N)sc2c(F)ccc(-c3c(C(F)(F)F)cc4c(N5CC6CCC(C5)N6)nc(OCC5CCOCC5)nc4c3F)c12` [Example 23, 4-(4-(3,8-diazabicyclo[3.2.1]octan-3-yl)-8-fluoro-2-((tetrahydro-2H-pyran-4-yl)methoxy)-6-(trifluoromethyl)quinazolin-7-yl)-2-amino-7-fluorobenzo[b]thiophene-3-carbonitrile], the IC50 (Homo sapiens, ASPC1, 2 h) turned out to be 334 nM.
